Data taken from patent publication US10759796B2, “CXCR4 inhibitors and uses thereof” (X4 Pharmaceuticals, Inc., priority 2016, dated 2020).

System: not listed separately
Experiment: in vitro
Conditions: human, Caco-2, pH 7.4
Outline: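 Compounds at 10 μM in HBSS pH 7.4 (0.1–0.3% DMSO) were dosed on Caco-2 monolayers, apical-to-basolateral and basolateral-to-apical, for 90 min at 37 °C, in duplicate. Monolayer integrity was checked by TEER and lucifer yellow flux, read by fluorescence at 485/535 nm. Compound was quantified by LC-MS/MS and Papp calculated.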

| SMILES | Papp A→B at 90 min, 10 μM | Papp B→A at 90 min, 10 μM | efflux ratio at 90 min, 10 μM |
| --- | --- | --- | --- |
| CCN1CCN(c2cccc3nc([C@H]4CCC[C@@H](c5ncccc5Cl)N4C)cn23)CC1 [Compound I-151] | 10 to 30 ×10⁻⁶ cm/s | 10 to 30 ×10⁻⁶ cm/s | 0.1 to 10 |
| CN1CC2CCC(C1)N2c1cccc2nc([C@H]3CCC[C@@H](c4ncccc4Cl)N3)cn12 [Compound I-182] | 10 to 30 ×10⁻⁶ cm/s | 10 to 30 ×10⁻⁶ cm/s | 0.1 to 10 |
| Cc1cccnc1[C@@H]1CCC[C@H](c2cn3c(N4CCN(C)CC4)c(F)ccc3n2)N1C [Compound I-106] | 0.1 to 10 ×10⁻⁶ cm/s | 10 to 30 ×10⁻⁶ cm/s | 0.1 to 10 |
| CN1C2CCC1CN(c1cccc3nc([C@H]4CCC[C@@H](c5ncccc5Cl)N4C)c(CO)n13)C2 [Compound I-135] | 0.1 to 10 ×10⁻⁶ cm/s | 10 to 30 ×10⁻⁶ cm/s | 0.1 to 10 |
| CN1CCN(c2cccc3nc([C@H]4CCC[C@@H](c5ncccc5Cl)N4C)c(Cl)n23)CC1 [Compound I-115] | 0.1 to 10 ×10⁻⁶ cm/s | 0.1 to 10 ×10⁻⁶ cm/s | 0.1 to 10 |
| CC[C@@H](O)c1c([C@H]2CCC[C@@H](c3ncccc3C)N2C)nc2cccc(N3CCN(C)CC3)n12 [Compound I-139] | 0.1 to 10 ×10⁻⁶ cm/s | > 30 ×10⁻⁶ cm/s | > 30 |
| C/C=C/c1c([C@H]2CCC[C@@H](c3ncccc3C)N2C)nc2cccc(N3CCN(C)CC3)n12 [Compound I-141] | 0.1 to 10 ×10⁻⁶ cm/s | 10 to 30 ×10⁻⁶ cm/s | 0.1 to 10 |
| CCN1[C@@H](c2nc3cccc(N4CCN(C)CC4)n3c2Br)CCC[C@H]1c1ncccc1C [Compound I-46] | 0.1 to 10 ×10⁻⁶ cm/s | 0.1 to 10 ×10⁻⁶ cm/s | 0.1 to 10 |
| Cc1cccnc1[C@@H]1CCC[C@H](c2nc3cccc(N4CCN(C)CC4)n3c2Cl)N1C(C)C [Compound I-127] | 0.1 to 10 ×10⁻⁶ cm/s | 0.1 to 10 ×10⁻⁶ cm/s | 0.1 to 10 |

System: not listed separately
Experiment: Fraction of drug unbound to brain proteins, mouse
Format: in vitro ADME
Conditions: Mouse brain proteins (Table 10); read-out: Fu (b) %

| SMILES | fraction unbound |
| --- | --- |
| CN1CCN(c2cccc3nc([C@H]4CCC[C@@H](c5ncccc5Cl)N4C)c(Cl)n23)CC1 [Compound I-115] | 0.005 |

Target: CXCR-4 transfected U87 cell line (U87.CXCR4) (Homo sapiens (Human), UniProt P61073)
Sequence (P61073 whole entry): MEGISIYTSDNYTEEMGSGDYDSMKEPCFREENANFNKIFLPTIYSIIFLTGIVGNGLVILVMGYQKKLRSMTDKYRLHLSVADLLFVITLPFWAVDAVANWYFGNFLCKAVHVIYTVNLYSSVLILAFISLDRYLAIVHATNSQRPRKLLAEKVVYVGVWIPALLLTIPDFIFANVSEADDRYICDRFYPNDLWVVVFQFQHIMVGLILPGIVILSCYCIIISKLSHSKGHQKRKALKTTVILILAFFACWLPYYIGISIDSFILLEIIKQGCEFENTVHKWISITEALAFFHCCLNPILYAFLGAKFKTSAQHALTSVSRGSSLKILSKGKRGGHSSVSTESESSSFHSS
Experiment: Intracellular CXCL-12-induced calcium mobilization assay (FLIPR)
Format: cell-based
Conditions: U87.CXCR4 cells, CXCL-12 25-50 ng/mL; read-out: IC50 CXCL-12 Ca2+ flux U87.CXCR4+
Outline: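 U87.CXCR4 cells were seeded at 20,000 per well, cultured 12 hours, then loaded with 4 μM Fluo-2 AM for 45 min at 37° C. in HBSS with 20 mM HEPES and 0.2% BSA, pH 7.4. Calcium flux triggered by CXCL-12 (25-50 ng/mL) was tracked over time by FLIPR fluorescence at 37° C.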

| SMILES | IC50 |
| --- | --- |
| CCN1CCN(c2cccc3nc([C@H]4CCC[C@@H](c5ncccc5Cl)N4C)cn23)CC1 [Compound I-151] | 100 to 1000 nM |
| CN1CC2CCC(C1)N2c1cccc2nc([C@H]3CCC[C@@H](c4ncccc4Cl)N3)cn12 [Compound I-182] | ≥ 1000 nM |
| Cc1cccnc1[C@@H]1CCC[C@H](c2cn3c(N4CCN(C)CC4)c(F)ccc3n2)N1C [Compound I-106] | 0.01 to 100 nM |
| CN1C2CCC1CN(c1cccc3nc([C@H]4CCC[C@@H](c5ncccc5Cl)N4C)c(CO)n13)C2 [Compound I-135] | 0.01 to 100 nM |
| CN1CCN(c2cccc3nc([C@H]4CCC[C@@H](c5ncccc5Cl)N4C)c(Cl)n23)CC1 [Compound I-115] | 0.01 to 100 nM |
| CC[C@@H](O)c1c([C@H]2CCC[C@@H](c3ncccc3C)N2C)nc2cccc(N3CCN(C)CC3)n12 [Compound I-139] | 100 to 1000 nM |
| C/C=C/c1c([C@H]2CCC[C@@H](c3ncccc3C)N2C)nc2cccc(N3CCN(C)CC3)n12 [Compound I-141] | 100 to 1000 nM |
| CCN1[C@@H](c2nc3cccc(N4CCN(C)CC4)n3c2Br)CCC[C@H]1c1ncccc1C [Compound I-46] | 0.01 to 100 nM |
| Cc1cccnc1[C@@H]1CCC[C@H](c2nc3cccc(N4CCN(C)CC4)n3c2Cl)N1C(C)C [Compound I-127] | 0.01 to 100 nM |

Target: Jurkat cells expressing CXCR4 (Homo sapiens (Human), UniProt P61073)
Sequence (P61073 whole entry): as above
Experiment: Chemokine (CXCL12-AF647) binding inhibition assay
Conditions: CXCL12-AF647 25 ng/mL, read-out: IC50 CXCL-12 binding Jurkat
Outline: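 Cells in HBSS, 20 mM HEPES, 0.2% BSA, pH 7.4, preincubated 15 min at room temperature with compound, then 25 ng/mL CXCL12-AF647 for 30 min. After washing and paraformaldehyde fixation, bound ligand read by flow cytometry; percent inhibition calculated from MFI relative to unlabeled and ligand-only controls.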

| SMILES | IC50 |
| --- | --- |
| CCN1CCN(c2cccc3nc([C@H]4CCC[C@@H](c5ncccc5Cl)N4C)cn23)CC1 [Compound I-151] | 0.01 to 100 nM |
| CN1CC2CCC(C1)N2c1cccc2nc([C@H]3CCC[C@@H](c4ncccc4Cl)N3)cn12 [Compound I-182] | 0.01 to 100 nM |
| Cc1cccnc1[C@@H]1CCC[C@H](c2cn3c(N4CCN(C)CC4)c(F)ccc3n2)N1C [Compound I-106] | 0.01 to 100 nM |
| CN1C2CCC1CN(c1cccc3nc([C@H]4CCC[C@@H](c5ncccc5Cl)N4C)c(CO)n13)C2 [Compound I-135] | 0.01 to 100 nM |
| CN1CCN(c2cccc3nc([C@H]4CCC[C@@H](c5ncccc5Cl)N4C)c(Cl)n23)CC1 [Compound I-115] | 0.01 to 100 nM |
| CC[C@@H](O)c1c([C@H]2CCC[C@@H](c3ncccc3C)N2C)nc2cccc(N3CCN(C)CC3)n12 [Compound I-139] | 0.01 to 100 nM |
| C/C=C/c1c([C@H]2CCC[C@@H](c3ncccc3C)N2C)nc2cccc(N3CCN(C)CC3)n12 [Compound I-141] | 0.01 to 100 nM |
| CCN1[C@@H](c2nc3cccc(N4CCN(C)CC4)n3c2Br)CCC[C@H]1c1ncccc1C [Compound I-46] | 0.01 to 100 nM |
| Cc1cccnc1[C@@H]1CCC[C@H](c2nc3cccc(N4CCN(C)CC4)n3c2Cl)N1C(C)C [Compound I-127] | 0.01 to 100 nM |

System: not listed separately
Experiment: Mouse brain uptake assay, 0-24 h, 4 time points
Format: in vivo
Conditions: male, CD1, Mouse brain, 3 mg/kg IV, 4 time points, read-out: AUClast (b)
Experimental: The study design (9 animals) consisted of administrating the drug (IV: 3 mg/kg (5 mL/kg) via tail vein injection) and collecting samples at terminal bleeding for plasma and brain at 0.083, 0.5 and 1 h. The blood collection was performed as follows: the animal was restrained manually and approximately 150 μL blood/time point was collected into a dipotassium EDTA tube via retro orbital puncture under anesthesia with isoflurane. The blood sample was put on ice and centrifuged to obtain a plasma sample (2000 g, 5 min under 4° C.) within 15 minutes. The brain collection was performed as follows: a mid-line incision was made in the animal's scalp and the skin was retracted. Using small bone cutters and rongeurs, the skull overlying the brain was removed. The brain was removed using a spatula and the brain rinsed with cold saline. The brain was placed in screw-top tubes, and the tubes were stored at −70° C. until analysis. The IV dosing solution was prepared in 50 mM citrate buffer (pH 4.0) at 0.6 mg/mL.
An aliquot of 30 μL sample was added to 150 μL MeCN containing 50 ng/mL IS (Dexamethasone). The mixture was vortexed for 5 min and centrifuged at 14,000 rpm for 5 min. An aliquot of 5 μL supernatant was injected for LC-MS/MS analysis.
An aliquot of 30 μL brain homogenate (brain:PBS=1:3, w/v) sample was added to 150 μL IS in ACN (Dexamethasone, 50 ng/mL). The mixture was vortexed for 5 min and centrifuged at 14,000 rpm for 5 min. An aliquot of 5 μL supernatant was injected for LC-MS/MS analysis.
The sample analysis was performed on LCMS/MS-003 (API4000, triple quadruple) under the following conditions: positive ion, ESI, MRM detection using dexamethasone as internal standard. HPLC conditions: mobile phase A: H2O (0.025% formic acid (FA) with 1 mM NH4OAc); mobile phase B: MeOH (0.025% FA with 1 mM NH4OAc) on Waters X-Bridge C18 (2.1×50 mm, 2.5 μm) column at 60° C.
A similar experiment was performed with 4 time points taken from 0-24 h.

| SMILES | AUC(0-t) |
| --- | --- |
| CN1CCN(c2cccc3nc([C@H]4CCC[C@@H](c5ncccc5Cl)N4C)c(Cl)n23)CC1 [Compound I-115] | 26900 ng·h/mL |

Same assay, conditions: male, CD1, Mouse plasma, 3 mg/kg IV, 4 time points, read-out: AUClast (p)

| SMILES | AUC(0-t) |
| --- | --- |
| CN1CCN(c2cccc3nc([C@H]4CCC[C@@H](c5ncccc5Cl)N4C)c(Cl)n23)CC1 [Compound I-115] | 1400 ng·h/mL |

Same assay, conditions: male, CD1, brain and plasma, Mouse, 3 mg/kg IV, 4 time points

| SMILES | Kp | Kp uu |
| --- | --- | --- |
| CN1CCN(c2cccc3nc([C@H]4CCC[C@@H](c5ncccc5Cl)N4C)c(Cl)n23)CC1 [Compound I-115] | 19.2 | 3.68 |

Same assay, conditions: male, CD1, plasma, Mouse, 3 mg/kg IV, 4 time points

| SMILES | clearance |
| --- | --- |
| CN1CCN(c2cccc3nc([C@H]4CCC[C@@H](c5ncccc5Cl)N4C)c(Cl)n23)CC1 [Compound I-115] | 35.3 mL/min/kg |

Same assay, conditions: male, CD1, plasma, Mouse, 3 mg/kg IV, 4 time points, read-out: t½ (converted)

| SMILES | half-life |
| --- | --- |
| CN1CCN(c2cccc3nc([C@H]4CCC[C@@H](c5ncccc5Cl)N4C)c(Cl)n23)CC1 [Compound I-115] | 3.96 h |

System: not listed separately
Experiment: Fraction of drug unbound to plasma proteins, mouse
Format: in vitro ADME
Conditions: Mouse plasma proteins (Table 10); read-out: Fu (p) %

| SMILES | fraction unbound |
| --- | --- |
| CN1CCN(c2cccc3nc([C@H]4CCC[C@@H](c5ncccc5Cl)N4C)c(Cl)n23)CC1 [Compound I-115] | 0.026 |
